Data as given in patent publication US12486254B2, “Uracil derivatives for stimulating read-through of premature termination codons” (Southern Research Institute, priority 2022, dated 2025).
Where “and” joins values, the source holds several entries; their conditions need not be identical. Equal values may be shown once.

Columns and labels:
[1] = system: W134X-CF#14 FRT; assay: Read-through of a premature termination codon, W134X-CF#14 FRT data, with G418; format: cell-based; conditions: in presence of G418
Experimental: (§1) The compounds shown in Table 1 were evaluated for their ability to stimulate read-through of a premature termination codon, and their respective activities are shown in Tables 2 and 3 below.

[2] = system: G542X#10-HBE5x5; assay: Read-through of a premature termination codon, G542X#10-HBE5x5 (Table 3); format: cell-based; conditions: with G418
Experimental: as §1

| Compound | EC50 [1] [µM] | EC50 [2] |
| --- | --- | --- |
| CCOC(=O)C1CCCCN1CC(=O)c1c(N)n(Cc2ccccc2)c(=O)n(CC)c1=O (stereo not drawn) [1.22] | 83.2 | ≥ 100 µM |
| CCn1c(=O)c(C(=O)CN2CCCCC2C(=O)N2CCN(C)CC2)c(N)n(Cc2ccccc2)c1=O (stereo not drawn) [1.96] | 58.5 | ≥ 100 µM |
| CCn1c(=O)c(C(=O)CN2CCCCC2C(=O)N(C)C)c(N)n(Cc2cccs2)c1=O (stereo not drawn) [1.113] | 5.79 | ≥ 100 µM |
| CCn1c(=O)c(C(=O)CN(CC(=O)N2CCCCC2)C(C)C)c(N)n(Cc2ccc(F)cc2)c1=O [1.176] | 1.63 | ≥ 100 µM |
| CCn1c(=O)c(C(=O)CN(C)Cc2ccc(C(=O)NC)cc2)c(N)n(Cc2ccccc2)c1=O [1.2] | 109 | ≥ 100 µM |
| CCn1c(=O)c(C(=O)CNc2cc(OC)c(OC)c(OC)c2)c(N)n(Cc2ccc(F)cc2)c1=O [1.183] | 25.7 | ≥ 100 µM |
| CCN(CC(N)=O)CC(=O)c1c(N)n(Cc2ccccc2)c(=O)n(CC)c1=O [1.36] | 93.9 | ≥ 100 µM |
| CCn1c(=O)c(C(=O)CNc2ccc(C(N)=O)cc2)c(N)n(Cc2ccc(F)cc2)c1=O [1.206] | 13 | 18.1 µM |
| CCn1c(=O)c(C(=O)CN2CCCCC2C(N)=O)c(N)n(Cc2cccs2)c1=O (stereo not drawn) [1.112] | 3.46 | ≥ 100 µM |
| CCn1c(=O)c(C(=O)CN2CCCC[C@@H]2c2ncc[nH]2)c(N)n(Cc2ccc(F)cc2)c1=O [1.196] | 1.56 | ≥ 100 µM |
| CCn1c(=O)c(C(=O)CN2CCCC[C@@H]2c2nccn2C)c(N)n(Cc2ccc(F)cc2)c1=O [1.190] | 3.26 | ≥ 100 µM |
| CCn1c(=O)c(C(=O)CN2CCN(c3ncccn3)CC2)c(N)n(Cc2ccccc2)c1=O [1.4] | 99.9 | ≥ 100 µM |
| CCn1c(=O)c(C(=O)CNC(C)C)c(N)n(Cc2ccc(F)cc2)c1=O [1.138, 6-amino-3-ethyl-1-[(4-fluorophenyl)methyl]-5-[2-(isopropylamino)acetyl]pyrimidine-2,4-dione] | 79.1 | ≥ 100 µM |
| CCn1c(=O)c(C(=O)CN2CCCC2C(=O)OC)c(N)n(Cc2ccccc2)c1=O (stereo not drawn) [1.12] | 46 | ≥ 100 µM |
| CCn1c(=O)c(C(=O)CN2CCCC[C@@H]2C(=O)NCC2CC2)c(N)n(Cc2ccccc2)c1=O [1.158] | 2.59 | ≥ 100 µM |
| Nc1c(C(=O)CN2CCCC[C@@H]2C(=O)N2CCCCC2)c(=O)n(Cc2ccc(F)cc2)c(=O)n1Cc1ccc(F)cc1 [1.152] | 3.13 | 25 µM |
| CCn1c(=O)c(C(=O)CN(Cc2ccccc2)C2CCCCC2)c(N)n(Cc2ccccc2)c1=O [1.30] | 67.5 | 90.5 µM |
| NC(=O)C1CCCCN1CC(=O)c1c(N)n(Cc2ccc(Cl)cc2)c(=O)n(Cc2ccc(Cl)cc2)c1=O (stereo not drawn) [1.107] | 4.52 | 7.03 µM |
| CCn1c(=O)c(C(=O)CN2CCC[C@@H]2C(=O)OC)c(N)n(Cc2ccccc2)c1=O [1.24] | 23.1 | ≥ 100 µM |
| CCn1c(=O)c(C(=O)CN2CCCCC2CN(C)C)c(N)n(Cc2ccc(F)cc2)c1=O (stereo not drawn) [1.177] | 65.1 | ≥ 100 µM |
| CCn1c(=O)c(C(=O)CN2CCCc3c(C(N)=O)cccc32)c(N)n(Cc2ccc(F)cc2)c1=O [1.223] | – | ≥ 100 µM |
| CCn1c(=O)c(C(=O)CN(CC(=O)N(C)C)C(C)C)c(N)n(Cc2ccc(F)cc2)c1=O [1.139] | – | ≥ 100 µM |
| CCn1c(=O)c(C(=O)CN2CCCC[C@@H]2C(=O)OC)c(N)n(Cc2ccc(F)cc2)c1=O [2.2] | – | ≥ 30 µM |
| CCn1c(=O)c(C(=O)CN[C@H](C(N)=O)C(C)C)c(N)n(Cc2ccc(F)cc2)c1=O [1.187] | – | ≥ 100 µM |
| CCn1c(=O)c(C(=O)CN2CCCC[C@@H]2C(=O)N(C)C)c(N)n(Cc2ccc(F)cc2)c1=O [1.126] | – | ≥ 100 µM |

| Compound | EC50 [1] [µM] | EC50 [2] |
| --- | --- | --- |
| CCn1c(=O)c(C(=O)CN2CCCC[C@@H]2C(N)=O)c(N)n(Cc2ccc(C(F)(F)F)nc2)c1=O [2.24] | – | ≥ 30 µM |
| CCn1c(=O)c(C(=O)CNc2nc3ccccc3[nH]2)c(N)n(Cc2ccccc2)c1=O [1.29] | 11.7 | 62.3 µM |
| CCn1c(=O)c(C(=O)CN(C(C)C)C(C)(C)C(N)=O)c(N)n(Cc2ccc(F)cc2)c1=O [2.19] | – | ≥ 30 µM |
| CCn1c(=O)c(C(=O)CN2CCC(C)CC2C(N)=O)c(N)n(Cc2ccc(F)cc2)c1=O (stereo not drawn) [1.131] | 4.7 | ≥ 100 µM |
| CCn1c(=O)c(C(=O)CN2CCCN(C)C2=O)c(N)n(Cc2ccc(F)cc2)c1=O [1.215] | – | ≥ 100 µM |
| CCn1c(=O)c(C(=O)CN2CCCC[C@@H]2C(=O)NC)c(N)n(Cc2ccc(F)cc2)c1=O [2.6] | – | ≥ 30 µM |
| CCn1c(=O)c(C(=O)CN2CCCC[C@@H]2C(=O)N2CCOCC2)c(N)n(Cc2ccc(F)cc2)c1=O [1.130] | – | ≥ 100 µM |
| CCn1c(=O)c(C(=O)CN(CC(N)=O)C(C)C)c(N)n(Cc2ccccc2)c1=O [1.1] | – | ≥ 100 µM |
| CCn1c(=O)c(C(=O)CNC2CCOCC2)c(N)n(Cc2ccccc2)c1=O [1.10] | – | ≥ 100 µM |
| CCn1c(=O)c(C(=O)CNC(CN2CCCC2=O)c2ccccc2)c(N)n(Cc2ccc(F)cc2)c1=O (stereo not drawn) [1.181] | – | ≥ 100 µM |
| CCn1c(=O)c(C(=O)CN2CCCCC2C(N)=O)c(N)n(Cc2ccccc2)c1=O (stereo not drawn) [1.48] | – | ≥ 100 µM |
| CCn1c(=O)c(C(=O)CN(CC(N)=O)C(C)C)c(N)n(Cc2ccc(F)cc2F)c1=O [1.149] | 3.2 | 41.7 µM |
| CCn1c(=O)c(C(=O)CN2CCCCC2=O)c(N)n(Cc2ccc(F)cc2)c1=O [1.165] | ≥ 100 | ≥ 100 µM |
| CCn1c(=O)c(C(=O)CN(C)C)c(N)n(Cc2cc(Cl)c(F)cc2F)c1=O [1.198] | – | ≥ 100 µM |
| CCn1c(=O)c(C(=O)CN2CCCC[C@@H]2C(N)=O)c(N)n(Cc2ccc(C(F)F)cc2)c1=O [2.12] | – | ≥ 30 µM |
| CCn1c(=O)c(C(=O)CN2CCCC[C@@H]2C(N)=O)c(N)n(Cc2ccccc2F)c1=O [2.3] | – | ≥ 30 µM |
| CCn1c(=O)c(C(=O)CN2CCCC[C@@H]2C(=O)N2CCCC2)c(N)n(Cc2ccc(F)cc2)c1=O [2.5] | – | ≥ 30 µM |
| CCN(CC)C(=O)[C@H]1CCCCN1CC(=O)c1c(N)n(Cc2ccc(F)cc2)c(=O)n(CC)c1=O [2.4] | – | ≥ 30 µM |
| CCn1c(=O)c(C(=O)CN2CCCC[C@@H]2C(N)=O)c(N)n(-c2cccc(F)c2)c1=O [2.16] | – | ≥ 30 µM |
| CCn1c(=O)c(C(=O)CN2CCCC[C@@H]2C(N)=O)c(N)n(Cc2ccc(F)cc2F)c1=O [2.11] | – | ≥ 30 µM and 18.2 µM |
| CCn1c(=O)c(C(=O)CN(Cc2ncc[nH]2)C(C)C)c(N)n(Cc2ccccc2)c1=O [1.57] | 15.4 | ≥ 100 µM |
| CCn1c(=O)c(C(=O)CN[C@@H](Cc2cnc[nH]2)C(=O)OC)c(N)n(Cc2ccccc2)c1=O [1.17] | – | ≥ 100 µM |
| CCn1c(=O)c(C(=O)CN2CCCC[C@@H]2C(N)=O)c(N)n(Cc2ccc(O)cc2)c1=O [1.217] | – | ≥ 100 µM |
| CCn1c(=O)c(C(=O)CN(CC(N)=O)C2CC2)c(N)n(Cc2ccccc2)c1=O [1.35] | – | ≥ 100 µM |
| CCOC(=O)C1CCN(CC(=O)c2c(N)n(Cc3ccccc3)c(=O)n(CC)c2=O)CC1 [1.6] | – | ≥ 100 µM |

| Compound | EC50 [1] [µM] | EC50 [2] |
| --- | --- | --- |
| CCn1c(=O)c(C(=O)CNCc2ccccc2)c(N)n(Cc2ccccc2)c1=O [1.14] | 12.3 | ≥ 100 µM |
| CCn1c(=O)c(C(=O)CN(CC(=O)N2CCC(F)(F)CC2)C(C)C)c(N)n(Cc2ccc(F)cc2)c1=O [1.203] | 4.1 | ≥ 100 µM |
| CCn1c(=O)c(C(=O)CN2CCc3cccc(C(=O)OC)c3C2)c(N)n(Cc2ccc(F)cc2)c1=O [1.220] | – | ≥ 100 µM |
| CCn1c(=O)c(C(=O)CN2CCCC2)c(N)n(Cc2ccc(F)cc2)c1=O [1.194] | 29.7 | ≥ 100 µM |
| CCn1c(=O)c(C(=O)CN[C@H](C(=O)OC)C(C)C)c(N)n(Cc2ccccc2)c1=O [1.15] | – | ≥ 100 µM |
| CCn1c(=O)c(C(=O)CN2CCCc3ccc(C(N)=O)cc32)c(N)n(Cc2ccc(F)cc2)c1=O [1.224] | – | ≥ 100 µM |
| CCn1c(=O)c(C(=O)CN2CCCC[C@@H]2C(N)=O)c(N)n(Cc2cccc(F)c2)c1=O [2.10] | – | ≥ 30 µM |
| CCn1c(=O)c(C(=O)CN2CCCC[C@@H]2C(N)=O)c(N)n(Cc2nccn2C)c1=O [2.15] | – | ≥ 30 µM |
| CCn1c(=O)c(C(=O)CN2CCCC[C@@H]2C(N)=O)c(N)n(Cc2ccc(F)nc2)c1=O [2.21] | – | ≥ 30 µM |
| CCn1c(=O)c(C(=O)CN2CCCC[C@H]2C(N)=O)c(N)n(Cc2ccc(F)cc2)c1=O [2.1] | – | ≥ 30 µM |
| CCn1c(=O)c(C(=O)CN(c2cccc(C(N)=O)c2)C(C)C)c(N)n(Cc2ccc(F)cc2)c1=O [1.219] | – | 48.5 µM |
| NC(=O)C1CCCCN1CC(=O)c1c(N)n(Cc2ccccc2)c(=O)n(C2CCCCC2)c1=O (stereo not drawn) [1.51] | – | ≥ 100 µM |
| CCn1c(=O)c(C(=O)CN2CCCNC2=O)c(N)n(Cc2ccc(F)cc2)c1=O [1.212] | – | ≥ 100 µM |
| CCn1c(=O)c(C(=O)CN2CCCC[C@@H]2C(N)=O)c(N)n(Cc2ccc(C#N)c(F)c2)c1=O [2.20] | – | ≥ 30 µM |
| CCn1c(=O)c(C(=O)CN2CCCCC2C(N)=O)c(N)n(Cc2ccc(F)c(OC)c2)c1=O (stereo not drawn) [1.164] | – | ≥ 100 µM |
| CCn1c(=O)c(C(=O)CNc2ccc(C)cc2)c(N)n(Cc2ccc(F)cc2)c1=O [1.227] | – | ≥ 100 µM |
| CCCNC(=O)CN(C)CC(=O)c1c(N)n(Cc2ccccc2)c(=O)n(C)c1=O [1.42] | – | ≥ 100 µM |
| CCn1c(=O)c(C(=O)CNC2CCC(=O)NC2=O)c(N)n(Cc2ccc(F)cc2)c1=O (stereo not drawn) [1.226] | – | ≥ 100 µM |
| NC(=O)C1CCCCN1CC(=O)c1c(N)n(Cc2ccccc2)c(=O)n(Cc2ccccc2)c1=O (stereo not drawn) [1.50] | – | 30 µM |
| CN(C)C(=O)C1CCCCN1CC(=O)c1c(N)n(Cc2ccc(F)cc2)c(=O)n(Cc2ccc(F)cc2)c1=O (stereo not drawn) [1.73] | – | 62.9 µM |
| CCn1c(=O)c(C(=O)CN2CCCC[C@@H]2C(N)=O)c(N)n(CCc2ccc(F)cc2)c1=O [2.7] | – | ≥ 30 µM |
| CCn1c(=O)c(C(=O)CN2CCNC(=O)C2)c(N)n(Cc2ccc(F)cc2)c1=O [1.209] | – | ≥ 100 µM |
| NC(=O)C1CCCCN1CC(=O)c1c(N)n(-c2ccc(F)cc2)c(=O)n(Cc2ccccc2)c1=O (stereo not drawn) [1.65] | – | ≥ 100 µM |
| CCn1c(=O)c(C(=O)CNCCC(N)=O)c(N)n(Cc2ccc(F)cc2)c1=O [1.201] | – | ≥ 100 µM |
